{"source": "patent US8969288B2", "about": "(Indiana University Research and Technology Corporation, priority 2008, dated 2015)", "key": {"GLP-1 receptor": {"target": "GLP-1 receptor (Homo sapiens, UniProt P43220)", "sequence (P43220 24-463, species assumed)": "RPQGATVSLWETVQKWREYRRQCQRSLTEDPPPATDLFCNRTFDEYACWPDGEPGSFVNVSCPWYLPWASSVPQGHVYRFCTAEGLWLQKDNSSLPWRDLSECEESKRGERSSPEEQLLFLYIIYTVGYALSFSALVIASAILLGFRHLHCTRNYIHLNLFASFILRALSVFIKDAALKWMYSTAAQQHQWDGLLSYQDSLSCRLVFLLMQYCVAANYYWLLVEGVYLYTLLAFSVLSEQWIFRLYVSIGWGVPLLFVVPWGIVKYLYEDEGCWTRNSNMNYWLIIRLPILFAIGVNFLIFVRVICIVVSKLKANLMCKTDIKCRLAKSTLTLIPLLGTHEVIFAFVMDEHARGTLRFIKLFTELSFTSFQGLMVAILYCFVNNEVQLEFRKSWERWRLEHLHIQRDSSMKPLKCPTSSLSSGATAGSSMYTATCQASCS", "assay": "GLP-receptor Luciferase assay of prodrug samples incubated in PBS", "assay_type": "cell-based", "conditions": "Table 5"}, "[1]": {"assay": "Dipeptide cleavage half time in PBS on model hexapeptide (HPLC, LC-MS)", "assay_type": "physicochemical", "conditions": "for Relative peak area(%), HPLC peak a: molecular weight 702; for Relative peak area(%), HPLC peak b: molecular weight 902", "method": "The hexapeptide was assembled on a peptide synthesizer.\nThen it was incubated at 37° C. in a water bath. […] HPLC was used to monitor the cleavage reaction.\nThe flow rate was 1 mL/min.\nThe slope of this plot gives the rate constant I′."}, "glucagon receptor": {"target": "glucagon receptor (Homo sapiens, UniProt P47871)", "sequence (P47871 26-477)": "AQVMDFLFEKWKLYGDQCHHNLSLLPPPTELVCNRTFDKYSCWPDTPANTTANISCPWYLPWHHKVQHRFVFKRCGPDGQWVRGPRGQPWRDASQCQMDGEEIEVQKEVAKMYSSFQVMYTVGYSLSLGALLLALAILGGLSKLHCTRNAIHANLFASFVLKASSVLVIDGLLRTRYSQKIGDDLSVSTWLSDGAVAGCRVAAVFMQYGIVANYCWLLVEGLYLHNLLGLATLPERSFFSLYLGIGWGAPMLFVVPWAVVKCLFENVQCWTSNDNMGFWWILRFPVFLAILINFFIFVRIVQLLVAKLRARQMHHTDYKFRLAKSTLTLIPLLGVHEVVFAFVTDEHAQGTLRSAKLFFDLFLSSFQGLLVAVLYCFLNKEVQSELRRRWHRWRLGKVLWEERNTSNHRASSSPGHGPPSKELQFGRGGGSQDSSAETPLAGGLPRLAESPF", "assay": "glucagon antagonism of Class 4 peptides, cAMP production in vitro", "assay_type": "cell-based", "conditions": "PLA at position 6 versus positions 4 and 5"}}, "note": "Like-named read-outs stand apart in the source and are kept apart here. Square brackets hold non-standard residues; d marks the D form. Side chains are listed from the residue outwards. Ends that are not written are not given here. Peptide text beside a SMILES is read from it. maleimide = maleimide activating group on PEG that reacts with a thiol-containing amino acid by Michael addition to form a thioether linkage (PEGylation); Aib = CC(C)(N)C(=O)O; Sar = CNCC(=O)O"}
{"compound": "40 k PEG-Aib^−1-P^0,C^24GLP(7-36): Aib^−1-P^0,C^24GLP(7-36) pegylated by maleimido-functioned 40 k Da PEG on the SH group of 24-Cys ([Aib]PHAEGTFTSDVSSYLEGQAAKEFIC([maleimide-PEG 40 kDa])WLVKGR; ends and bridges not checked)", "values": [{"measurement": "EC50%/STD ratio", "setting": "GLP-1 receptor; 30 h in PBS", "value": 17.31, "unit": "%"}, {"measurement": "EC50%/STD ratio", "setting": "GLP-1 receptor; 54 h in PBS", "value": 27.74, "unit": "%"}, {"measurement": "EC50%/STD ratio", "setting": "GLP-1 receptor; 240 h in PBS", "value": 66.49, "unit": "%"}, {"measurement": "EC50%/STD ratio", "setting": "GLP-1 receptor; […] in PBS", "value": 55.90, "unit": "%"}]}
{"compound": "C[C@@H](O)[C@H](NC(=O)CNC(=O)[C@H](CCCNC(=N)N)NC(=O)[C@H](CO)NC(=O)[C@H](Cc1c[nH]cn1)NC(=O)CN(C)C(=O)[C@@H](N)CCCCN)C(=O)N[C@@H](Cc1ccccc1)C(N)=O", "note": "[lys-sar-HSRGTF-NH2] (H-K[Sar]HSRGTF-NH2; N-terminus assumed)", "values": [{"measurement": "Relative peak area(%), HPLC peak a", "setting": "[1]; 5 h in PBS pH 7.4, 37° C.", "value": 26.5, "unit": "%"}, {"measurement": "Relative peak area(%), HPLC peak b", "setting": "[1]; 5 h in PBS pH 7.4, 37° C.", "value": 73.5, "unit": "%"}, {"measurement": "Relative peak area(%), HPLC peak a", "setting": "[1]; 8 h in PBS", "value": 28.9, "unit": "%"}, {"measurement": "Relative peak area(%), HPLC peak b", "setting": "[1]; 8 h in PBS", "value": 71.1, "unit": "%"}, {"measurement": "Relative peak area(%), HPLC peak a", "setting": "[1]; 24 h in PBS", "value": 28.8, "unit": "%"}, {"measurement": "Relative peak area(%), HPLC peak b", "setting": "[1]; 24 h in PBS", "value": 71.2, "unit": "%"}, {"measurement": "Relative peak area(%), HPLC peak a", "setting": "[1]; 31 h in PBS", "value": 77.7, "unit": "%"}, {"measurement": "Relative peak area(%), HPLC peak b", "setting": "[1]; 31 h in PBS", "value": 22.3, "unit": "%"}, {"measurement": "Relative peak area(%), HPLC peak a", "setting": "[1]; 47 h in PBS", "value": 90.0, "unit": "%"}, {"measurement": "Relative peak area(%), HPLC peak b", "setting": "[1]; 47 h in PBS", "value": 10.0, "unit": "%"}, {"measurement": "half-life", "setting": "[1]; phosphate buffered saline (PBS) buffer, pH 7.4", "value": 14, "unit": "h"}]}
{"compound": "C[C@H](O)[C@@H](NC(=O)CNC(=O)[C@@H](CCCNC(=N)N)NC(=O)[C@H](NC(=O)[C@@H](Cc1c[nH]cn1)NC(=O)CN(C)C(=O)[C@@H](N)CCCCN)[C@H](C)O)C(=O)N[C@H](Cc1ccccc1)C(N)=O", "note": "[lys-sar-dHdTdRGdTdF-NH2] (H-K[Sar][dH][dT][dR]G[dT][dF]-NH2)", "values": [{"measurement": "Relative peak area(%), HPLC peak a", "setting": "5 h in plasma pH 7.4, 37° C., molecular weight 702", "value": 17.0, "unit": "%"}, {"measurement": "Relative peak area(%), HPLC peak b", "setting": "5 h in plasma, molecular weight 902", "value": 83.0, "unit": "%"}, {"measurement": "Relative peak area(%), HPLC peak a", "setting": "11 h in plasma", "value": 29.2, "unit": "%"}, {"measurement": "Relative peak area(%), HPLC peak b", "setting": "11 h in plasma", "value": 70.8, "unit": "%"}, {"measurement": "Relative peak area(%), HPLC peak a", "setting": "24 h in plasma", "value": 60.2, "unit": "%"}, {"measurement": "Relative peak area(%), HPLC peak b", "setting": "24 h in plasma", "value": 39.8, "unit": "%"}, {"measurement": "Relative peak area(%), HPLC peak a", "setting": "32 h in plasma", "value": 54.0, "unit": "%"}, {"measurement": "Relative peak area(%), HPLC peak b", "setting": "32 h in plasma", "value": 46.0, "unit": "%"}, {"measurement": "Relative peak area(%), HPLC peak a", "setting": "48 h in plasma", "value": 27.6, "unit": "%"}, {"measurement": "Relative peak area(%), HPLC peak b", "setting": "48 h in plasma", "value": 72.4, "unit": "%"}]}
{"compound": "PLA6 analog: glucagon peptide with first 5 amino acids removed and remaining N-terminal amino group replaced with a hydroxyl group (phenyl-lactic acid)", "values": [{"measurement": "glucagon antagonist potency compared with analogs having a slightly extended N-terminus", "setting": "glucagon receptor", "value": "appreciably more potent antagonist"}]}
